The values below come from ChEMBL document CHEMBL4229568, “Discovery of natural flavonoids as activators of Nrf2-mediated defense system: Structure-activity relationship and inhibition of intracellular oxidative insults” (Bioorg Med Chem, 2018).

Data set [1] deals with T1, Nuclear factor erythroid 2-related factor 2 (Homo sapiens) (UniProt Q16236).
T1 sequence (whole entry): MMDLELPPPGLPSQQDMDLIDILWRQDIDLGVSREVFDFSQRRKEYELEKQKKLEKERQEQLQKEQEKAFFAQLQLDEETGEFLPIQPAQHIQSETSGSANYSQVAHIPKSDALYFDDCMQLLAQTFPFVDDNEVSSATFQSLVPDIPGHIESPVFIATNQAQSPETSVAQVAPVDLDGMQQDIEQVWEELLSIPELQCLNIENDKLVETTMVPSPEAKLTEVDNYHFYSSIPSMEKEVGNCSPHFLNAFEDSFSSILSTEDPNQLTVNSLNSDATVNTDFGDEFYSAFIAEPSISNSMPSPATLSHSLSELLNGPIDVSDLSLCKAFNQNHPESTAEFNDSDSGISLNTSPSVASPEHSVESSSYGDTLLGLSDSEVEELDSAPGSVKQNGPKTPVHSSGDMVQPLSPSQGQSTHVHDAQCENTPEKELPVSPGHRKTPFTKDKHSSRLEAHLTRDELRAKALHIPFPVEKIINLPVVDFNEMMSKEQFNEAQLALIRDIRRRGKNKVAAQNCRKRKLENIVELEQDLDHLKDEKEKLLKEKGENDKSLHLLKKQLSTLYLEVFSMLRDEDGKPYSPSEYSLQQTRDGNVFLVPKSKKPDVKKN
Nature of the data set: Activation of Nrf2 in human BEAS2B cells assessed as upregulation of gamma-GCS protein expression at 3.12 to 25 uM after 12 hrs by immunoblot analysis. In kind it is cell-based.

Data set [2] relates to BEAS-2B. Nature of the data set: Cytotoxicity against human BEAS2B cells assessed as decrease in cell viability at 6.25 after 24 hrs by MTT assay. In kind it is cell-based.
For data set [3], the target named is T1, Nuclear factor erythroid 2-related factor 2 (Homo sapiens). The data set is described as follows: Activation of Nrf2 in human BEAS2B cells assessed as upregulation of gamma-GCS protein expression at 50 to 100 uM after 18 hrs by immunoblot analysis. The class given is cell-based.
Data set [4] shares this target. The data set is described as follows: Activation of Nrf2 in human BEAS2B cells assessed as upregulation of Nrf2 protein expression at 6.25 uM after 48 hrs by immunoblot analysis. The class given is cell-based.
For data set [5] the target is unchanged. Nature of the data set: Activation of Nrf2 in human MDA-MB-231 cells assessed as upregulation of gamma-GCS protein expression after 16 hrs by immunoblot analysis. In kind it is cell-based.
For data set [6], the system named is BEAS-2B. Nature of the data set: Cytotoxicity against human BEAS2B cells assessed as decrease in cell viability up to 25 uM after 48 hrs by MTT assay. In kind it is cell-based.
For data set [7], the target named is T1, Nuclear factor erythroid 2-related factor 2 (Homo sapiens). Nature of the data set: Activation of Nrf2 in human BEAS2B cells assessed as upregulation of NQO1 protein expression at 0.31 to 20 uM after 18 hrs by immunoblot analysis. In kind it is cell-based.
Data set [8] has the same target. The data set is described as follows: Activation of Nrf2 in human BEAS2B cells assessed as upregulation of NQO1 protein expression at 3.12 to 25 uM after 12 hrs by immunoblot analysis. In kind it is cell-based.
Data set [9] has as its system BEAS-2B. The data set is described as follows: Effect on reactive oxygen species production in human BEAS2B cells at 6.25 uM treated for 8 hrs. In kind it is ADME, cell-based.
Data set [10] concerns the target T1, Nuclear factor erythroid 2-related factor 2 (Homo sapiens). The data set is described as follows: Stabilization of Nrf2 in human BEAS2B cells assessed as protein half life at 6.25 uM preincubated for 8 hrs followed by CHX addition and measured over 10 to 40 mins by immunoblot analysis (reference value: 14.7 min). In kind it is cell-based.
Data set [11] has the same target. The data set is described as follows: Activation of Nrf2 in human BEAS2B cells assessed as upregulation of NQO1 protein expression at 6.25 uM pretreated for 1 hr followed by co-treatment with p38 MAPK inhibitor SB203580 for 18 hrs by immunoblot analysis. The class given is cell-based.
In data set [12] the test system is BEAS-2B. Nature of the data set: Effect on Keap1 protein levels in human BEAS2B cells at <= 20 uM after 18 hrs by immunoblot analysis. The class given is functional, cell-based.
Data set [13] deals with T2, Nuclear factor erythroid 2-related factor 2 (Mus musculus) (UniProt Q60795).
T2 sequence (whole entry): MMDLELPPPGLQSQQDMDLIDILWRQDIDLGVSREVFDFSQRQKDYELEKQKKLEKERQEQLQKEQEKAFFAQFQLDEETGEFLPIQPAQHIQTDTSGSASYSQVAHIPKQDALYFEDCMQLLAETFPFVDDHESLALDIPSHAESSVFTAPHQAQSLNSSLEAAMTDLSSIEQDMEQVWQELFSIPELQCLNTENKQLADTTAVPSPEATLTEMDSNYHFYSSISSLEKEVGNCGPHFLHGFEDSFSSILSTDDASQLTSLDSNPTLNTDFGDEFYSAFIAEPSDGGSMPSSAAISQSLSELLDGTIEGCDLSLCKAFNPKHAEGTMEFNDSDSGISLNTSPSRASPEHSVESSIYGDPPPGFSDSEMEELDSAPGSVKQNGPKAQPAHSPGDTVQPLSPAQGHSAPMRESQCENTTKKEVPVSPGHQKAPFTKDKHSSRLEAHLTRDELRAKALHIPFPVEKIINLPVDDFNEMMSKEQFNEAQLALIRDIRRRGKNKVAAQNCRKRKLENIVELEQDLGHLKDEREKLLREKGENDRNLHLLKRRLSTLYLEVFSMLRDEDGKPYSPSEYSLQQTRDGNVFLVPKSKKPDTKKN
Nature of the data set: Activation of Nrf2 in mouse Heap1c1c7 cells assessed as induction of NAD(P)H:quinone reductase activity at 6.25 uM pretreated for 1 hr followed by co-treatment with p38 MAPK inhibitor SB203580 for 24 hrs. In kind it is cell-based.

In data set [14] the target is T1, Nuclear factor erythroid 2-related factor 2 (Homo sapiens). The data set is described as follows: Activation of Nrf2 in human BEAS2B cells assessed as upregulation of gamma-GCS protein expression at 0.31 to 20 uM after 18 hrs by immunoblot analysis. The class given is cell-based.
The target is the same in data set [15]. The data set is described as follows: Activation of Nrf2 in human MDA-MB-231 cells assessed as upregulation of Nrf2 protein expression after 16 hrs by immunoblot analysis. In kind it is cell-based.
The target is the same in data set [16]. Nature of the data set: Activation of Nrf2 in human MDA-MB-231 cells assessed as upregulation of NQO1 protein expression after 16 hrs by immunoblot analysis. In kind it is cell-based.
The target is the same in data set [17]. Nature of the data set: Activation of Nrf2 in human BEAS2B cells assessed as upregulation of Nrf2 protein expression at 6.25 uM pretreated for 1 hr followed by co-treatment with PERK inhibitor GSK2606414 for 18 hrs by immunoblot analysis. In kind it is cell-based.
Data set [18] shares this target. Nature of the data set: Activation of Nrf2 in human BEAS2B cells assessed as upregulation of GSH levels after 24 hrs. In kind it is cell-based.
Data set [19] has the same target. The data set is described as follows: Activation of Nrf2 in human BEAS2B cells assessed as upregulation of NQO1 protein expression at 6.25 uM after 48 hrs by immunoblot analysis. The class given is cell-based.
Data set [20] has the same target. The data set is described as follows: Activation of Nrf2 in human BEAS2B cells assessed as upregulation of gamma-GCS protein expression at 6.25 uM after 48 hrs by immunoblot analysis. In kind it is cell-based.
For data set [21] the target is unchanged. The data set is described as follows: Activation of Nrf2 in human BEAS2B cells assessed as upregulation of NQO1 protein expression at 6.25 uM pretreated for 1 hr followed by co-treatment with PI3K inhibitor LY294002 for 18 hrs by immunoblot analysis. In kind it is cell-based.
Data set [22] has the same target. The data set is described as follows: Activation of Nrf2 in human BEAS2B cells assessed as upregulation of GSH levels at 5 uM measured over 1 to 24 hrs. In kind it is cell-based.
For data set [23] the target is unchanged. The data set is described as follows: Activation of Nrf2 in human BEAS2B cells assessed as upregulation of Nrf2 protein expression at 3.12 to 25 uM after 12 hrs by immunoblot analysis. In kind it is cell-based.

Structures are written as SMILES. Active and inactive are the calls of the source. No cut-off for these calls is given here.

In the case of `COc1ccc(-c2coc3cc(OC)cc(O)c3c2=O)cc1` [4',7-DIMETHOXY-5-HYDROXYGENISTEIN], the outcome in data set [1], in data set [8], in data set [22] and in data set [23] was Active. Moreover, the Activity entry is “Non-Toxic” in the data set on BEAS-2B [2]; “Dose-dependent effect” in data set [5]; “Non-Toxic” in the data set with BEAS-2B [6]; “Dose-dependent effect” in [7]; “Non-Toxic” with BEAS-2B [9]; “Dose-dependent effect” in data set [14]. Moreover, the Activity entry in [15], in data set [16] and in data set [18] was “Dose-dependent effect” in each case. The result (in data set [3]; in data set [4]; in data set [11]; with BEAS-2B [12]; in [13]; in data set [17]) was inactive. Besides, the result in data set [19], in data set [20] and in data set [21] was inactive. The T1/2 in data set [10] came out at 27.6 min.
